Measurements published in US20150139961A1, “Reprogramming Blood Cells to Pluripotent and Multipotent Stem Cells” (The Johns Hopkins University, priority 2009, published 2015).

Legend:
CB CD34+ cells = assay: Reprogramming of cord blood CD34+ cells by EBNA1/OriP plasmids, TRA-1-60+ colonies at day 14; format: cell-based, human; conditions: NaB 0.25 mM, with either vector combination
Experimental: In the first set of 3 experiments, the pEB-C5 and pEB-Tg plasmids were used in comparison with the Thomson/Yu combination #6 containing 3 plasmids. After expansion (˜5-flod) with cytokines for 4 days, CB CD34+ cells were transfected once and then cultured following the standard protocol of deriving human iPSCs. […] Transfected cells were cultured for 2 more days before transferring onto 6 wells coated with MEF feeder cells. At day 3, the ESC culture medium was used in the presence or absence of NaB (0.25 mM) or VPA (0.5 mM). After day 9, the MEF-derived conditioned medium (CM) was used to substitute plain ESC medium. […] At day 14, cultures can be stained live with the TRA-1-60 antibody. TRA-1-60+ colonies with ESC-like morphology were picked after counting all the colonies.
After thawing, CD34+ cells were cultured for 4 to 5 days under a serum-free medium (SFM): containing 50% IMDM with 50% Ham's F12 (Invitrogen), ITS supplement (insulin-transferrin-selenium and 5 mg/ml BSA), synthetic lipids, 50 ug/ml of ascorbic acid and 2 mM glutamine (all from Sigma). […]
The cell culture plates with sizable ESC-like colonies were incubated in 37° C. for 1 hour before medium was changed to fresh ESC medium or CM. TRA-1-60 positive colonies were identified under an inverted fluorescence microscope, and can be picked up within 1 day after staining for further expansion and characterization.

CB MNCs = assay: Reprogramming of cultured cord blood mononuclear cells by EBNA1/OriP plasmids; format: cell-based, human; conditions: added to pEB-C5
Experimental: After thawing, frozen MNCs from CB and PB) were cultured in the SFM supplemented with the following cytokines and a hormone: SCF (50 ng/ml), IL-3 (10 ng/ml), EPO (2U/ml, R&D Systems), IGF-1 (40 ng/ml) and dexamethasone (1 uM, Sigma). The media were replenished at day 3 and 6. By day 8-9 when an overt sign of cell division was observed, cells were harvested for nucleofection as well for various analyses. Approximately 3.5-fold cells were obtained for CB at day 8 and 1.5-fold for PB MNC at day 9. After optimizing nucleofection of the cultured MNCs to achieve maximal cell survival and gene transfer, the inventor settled down with the same Human CD34 Cell solution [Nucleofector Kit VPA-1003] but with 2×10^6 cultured cells. The transfected MNCs were cultured in the same medium for days and then further reprogrammed on MEF feeder cells as described above with cultured CD34+ cells. […]
TRA-1-60 Live Staining for identifying fully reprogrammed clones: TRA-1-60 antibody (mouse IgM, used as 1:300 of MAB4360, Millipore) and Alexa555-conjugated anti-mouse IgM secondary antibody (1:500, Invitrogen) were diluted in ESC medium and added into reprogramming cell culture plates. […] TRA-1-60 positive colonies were identified under an inverted fluorescence microscope, and can be picked up within 1 day after staining for further expansion and characterization.

Structure (SMILES): CCCC(=O)[O-].[Na+] [NaB, Sodium butyrate]
- effect on number (and percentages) of TRA-1-60+ colonies (CB CD34+ cells): consistently enhance
- stimulatory effect on reprogramming (CB MNCs): minimal
